Measured values as given in patent US20190053492A1, “SUBSTITUTED PYRIDINE COMPOUNDS AS PESTICIDES” (Bayer CropScience Aktiengesellschaft, priority 2016, published 2019).

Columns and labels:
[1] = system: Spodoptera frugiperda; assay: Spodoptera frugiperda spray test; assay type: in vivo; details: after 7 days, maize leaf discs
Summary of the method: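 Maize leaf discs were sprayed with compound formulated in acetone/DMF and emulsifier-containing water, dried, then infested with Spodoptera frugiperda caterpillars. Percent kill was scored after 7 days, from 100% (all dead) to 0% (none dead).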

[2] = log P by HPLC on reversed-phase column (C 18), EEC Directive 79/831 Annex V.A8; assay type: physicochemical; details: 55° C.; for LOGP_HCOOH: log P (HCOOH)
Protocol: Temperature: 55° C. […] Called log P (HCOOH) in the table. […] Called log P (neutral) in the table.

[3] = system: Phaedon cochleariae; assay: Phaedon cochleariae spray test; assay type: in vivo; details: after 7 days, Chinese cabbage leaf discs
Summary of the method: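 Chinese cabbage leaf discs sprayed with compound in acetone/DMF and emulsifier-containing water, then infested with mustard beetle larvae once dry. Efficacy in % scored after 7 days (100% = all larvae killed, 0% = none).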

[4] = system: Musca domestica; assay: Musca domestica test; assay type: in vivo; details: application rate 100 ppm, after 2 days, adult houseflies
Protocol: Musca domestica Test Solvent: dimethyl sulphoxide To produce a suitable active ingredient formulation, 10 mg of active ingredient are mixed with 0.5 ml of dimethyl sulphoxide, and the concentrate is diluted with water to the desired concentration. Vessels containing a sponge treated with sugar solution and the active ingredient formulation of the desired concentration are populated with 10 adult houseflies (Musca domestica). After 2 days, the kill in % is determined. 100% means that all of the flies have been killed; 0% means that none of the flies have been killed.

[5] = system: Lucilia cuprina; assay: Lucilia cuprina test; assay type: in vivo; details: application rate 100 ppm, after 2 days, L1 larvae
Summary of the method: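 Active ingredient dissolved in DMSO and diluted with water to the test concentration. About 20 first-instar sheep blowfly larvae placed on minced horsemeat containing the formulation; percentage of larvae killed scored after 2 days.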

[6] = system: Ctenocephalides felis; assay: Ctenocephalides felis oral test; assay type: in vivo; details: application rate 100 ppm in citrated cattle blood, after 2 days, adult cat fleas
Summary of the method: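 About 20 unfed adult cat fleas fed through a parafilm membrane on citrated cattle blood dosed with compound from a DMSO formulation. Percent kill was scored after 2 days.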

[7] = acidic range pH 2.7, 0.1% aqueous formic acid and acetonitrile, reversed-phase column (C 18)
[8] = log P, neutral range, HPLC on reversed-phase column (C 18)
[9] = acidic range at pH 2.7, 0.1% aqueous formic acid and acetonitrile, HPLC on reversed-phase column (C 18)
[10] = log P (neutral), HPLC reversed-phase column (C 18)

LOGP_HCOOH [2, 7] | LOGP_NEUTRAL [2, 8] | LOGP_HCOOH [2, 9] | LOGP_NEUTRAL [2, 10] | SMILES | efficacy (caterpillars killed) ([1]; application rate 100 g/ha) | efficacy (caterpillars killed) ([1]; application rate 500 g/ha) | efficacy (beetle larvae killed) ([3]; application rate 100 g/ha) | efficacy (beetle larvae killed) ([3]; application rate 500 g/ha) | efficacy (kill in %) [4] | efficacy (kill in %) [5] | efficacy (kill in %) [6]
– | – | 4.28 | – | CC(NC(=O)c1cc(-c2ccc(OC(F)(F)F)cc2)cc(NC(=O)C2CC2)n1)c1ccc([N+](=O)[O-])cc1 (stereo not shown) [Example I-228] | 83% | 100% | – | 100% | – | 100% | 100%
3.94 | – | – | – | CC(C#N)NC(=O)c1cc(-c2ccc(C(F)(F)C(F)(F)F)c(F)c2)cc(NC(=O)C2CC2)n1 (stereo not shown) [Example I-245] | 100% | 100% | 100% | 100% | – | 80% | 100%
4.56 | – | – | 4.49 | CC(NC(=O)c1cc(-c2ccc(C(F)(F)C(F)(F)F)c(F)c2)cc(NC(=O)C2CC2)n1)c1ccc(C#N)cc1 (stereo not shown) [Example I-247] | 100% | 100% | 100% | 100% | – | 100% | 100%
4.51 | – | – | 4.51 | N#Cc1cc(F)c(CNC(=O)c2cc(-c3ccc(C(F)(F)C(F)(F)F)c(F)c3)cc(NC(=O)C3CC3)n2)cc1F [Example I-249] | 100% | 100% | 100% | 100% | – | 100% | 100%
4.56 | – | – | 4.50 | N#Cc1c(F)cc(CNC(=O)c2cc(-c3ccc(C(F)(F)C(F)(F)F)c(F)c3)cc(NC(=O)C3CC3)n2)cc1F [Example I-250] | 100% | 100% | 100% | 100% | – | 95% | 100%

Second part, the compound before the results:

SMILES | LOGP_HCOOH [2, 7] | LOGP_NEUTRAL [2, 8] | LOGP_HCOOH [2, 9] | LOGP_NEUTRAL [2, 10] | efficacy (caterpillars killed) ([1]; application rate 100 g/ha) | efficacy (caterpillars killed) ([1]; application rate 500 g/ha) | efficacy (beetle larvae killed) ([3]; application rate 100 g/ha) | efficacy (beetle larvae killed) ([3]; application rate 500 g/ha) | efficacy (kill in %) [4] | efficacy (kill in %) [5] | efficacy (kill in %) [6]
N#Cc1ccc(CNC(=O)c2cc(-c3ccc(C(F)(F)F)cc3)cc(NC(=O)C3CC3)n2)cc1F [Example I-026] | 3.87 | 3.79 | – | – | 100% | 100% | 100% | 100% | 100% | 100% | 100%
CC(NC(=O)c1cc(-c2ccc(C(F)(F)F)cc2)cc(NC(=O)C2CC2)n1)c1ccc(C#N)cc1 (stereo not shown) [Example I-040] | 4.01 | 3.94 | – | – | 83% | 100% | 100% | 100% | 90% | 100% | 98%
CC(C)C(=O)Nc1cc(-c2ccc(OC(F)(F)F)cc2)cc(C(=O)NCc2cc(F)c(C#N)c(F)c2)n1 [Example I-073] | 4.35 | 4.21 | – | – | 83% | 100% | – | – | 80% | 100% | 100%
N#Cc1cc(F)c(CNC(=O)c2cc(-c3ccc(C(F)(F)F)cc3)cc(NC(=O)C3CC3)n2)cc1F [Example I-074] | 4.05 | 3.90 | – | – | 100% | 100% | 100% | 100% | 100% | 100% | 100%
N#Cc1ccc(CNC(=O)c2cc(-c3ccc(C(F)(F)F)cc3)cc(NC(=O)C3CC3)n2)c(F)c1 [Example I-077] | 3.90 | 3.79 | – | – | 100% | 100% | 83% | 100% | 80% | 100% | 100%
CC(C)C(=O)Nc1cc(-c2ccc(C(F)(F)F)cc2)cc(C(=O)NCc2ccc(C#N)cc2F)n1 [Example I-078] | 3.99 | 3.96 | – | – | 100% | 100% | – | 100% | 100% | 100% | 100%
N#Cc1ccc(CNC(=O)c2cc(-c3ccc(OC(F)(F)F)cc3)cc(NC(=O)C3CC3)n2)c(F)c1 [Example I-079] | 4.03 | 3.91 | – | – | 100% | 100% | – | 100% | 90% | 100% | 100%
O=C(NCc1ccc([N+](=O)[O-])cc1)c1cc(-c2ccc(OC(F)(F)F)cc2)cc(NC(=O)C2CC2)n1 [Example I-085] | 4.11 | 3.97 | – | – | 100% | 100% | 100% | 100% | 80% | 100% | 100%
Cn1nccc1-c1ccc(CNC(=O)c2cc(-c3ccc(OC(F)(F)F)cc3)cc(NC(=O)C3CC3)n2)cc1 [Example I-107] | 3.86 | 3.80 | – | – | – | 100% | 100% | 100% | 90% | 100% | –
N#Cc1ccc(C2(NC(=O)c3cc(-c4ccc(OC(F)(F)F)cc4)cc(NC(=O)C4CC4)n3)CC2)cc1 [Example I-159] | – | 3.93 | 4.08 | – | 100% | 100% | – | – | 80% | 90% | 100%
N#Cc1ccc(CNC(=O)c2cc(-c3ccc(N(C(F)(F)F)C(F)(F)F)cc3)cc(NC(=O)C3CC3)n2)cc1 [Example I-225] | – | 4.34 | 4.40 | – | 100% | 100% | 100% | 100% | – | 100% | 100%
